Patent US11548868B2, “Heterocyclic compounds, compositions comprising heterocyclic compound, and methods of use thereof” (JS INNOPHARM (SHANGHAI) LTD, priority 2017, dated 2023)

Key:
[1] = biological target: T1, IDO1 in Hela cancer cells (Homo sapiens, UniProt P14902); test: IDO1 Cellular Assay (kynurenine production in IFN-γ stimulated Hela cancer cells); format: cell-based; settings: human IFN-γ 50 ng/mL, 48 hours incubation, kynurenine at 490 nm
T1 construct: endogenous in cells; host or cells: Hela cancer cells stimulated with human IFN-γ
Summary of the method: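 HeLa cells stimulated with 50 ng/mL IFN-γ (final) and treated 48 h with compound (0–25 μM final, 0.25% DMSO). Supernatant kynurenine measured after TCA hydrolysis and p-dimethylaminobenzaldehyde reaction at 490 nm; inhibition vs DMSO control, IC50 by non-linear regression.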

[2] = biological target: T2, TDO2 in A172 cancer cells (Homo sapiens, UniProt P48775); test: TDO2 Cellular Assay (kynurenine production in A172 cancer cells); format: cell-based; settings: L-Trp 1 mM, 24 hours incubation, kynurenine at 490 nm
T2 construct: endogenous in cells; host or cells: A172 cancer cells
Summary of the method: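 A172 cells seeded overnight, then given 1 mM L-Trp and test compound (0–25 μM, 0.25% DMSO) for 24 h at 37 °C. Supernatant treated with TCA at 50 °C to convert N-formylkynurenine, kynurenine detected with p-dimethylaminobenzaldehyde at 490 nm; IC50 by non-linear regression of inhibition versus DMSO control.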

T2 sequence (P48775 whole entry): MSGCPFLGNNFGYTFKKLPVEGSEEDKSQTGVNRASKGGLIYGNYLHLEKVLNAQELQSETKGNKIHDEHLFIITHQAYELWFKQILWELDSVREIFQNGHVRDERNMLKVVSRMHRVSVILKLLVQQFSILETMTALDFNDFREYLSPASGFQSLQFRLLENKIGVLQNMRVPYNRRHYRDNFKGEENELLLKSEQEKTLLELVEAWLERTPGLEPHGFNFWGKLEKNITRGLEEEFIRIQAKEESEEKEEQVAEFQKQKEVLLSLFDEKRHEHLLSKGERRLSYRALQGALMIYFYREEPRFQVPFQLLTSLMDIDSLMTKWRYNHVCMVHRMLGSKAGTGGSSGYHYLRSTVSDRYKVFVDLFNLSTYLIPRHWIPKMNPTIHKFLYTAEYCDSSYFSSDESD
T1 sequence (P14902 whole entry): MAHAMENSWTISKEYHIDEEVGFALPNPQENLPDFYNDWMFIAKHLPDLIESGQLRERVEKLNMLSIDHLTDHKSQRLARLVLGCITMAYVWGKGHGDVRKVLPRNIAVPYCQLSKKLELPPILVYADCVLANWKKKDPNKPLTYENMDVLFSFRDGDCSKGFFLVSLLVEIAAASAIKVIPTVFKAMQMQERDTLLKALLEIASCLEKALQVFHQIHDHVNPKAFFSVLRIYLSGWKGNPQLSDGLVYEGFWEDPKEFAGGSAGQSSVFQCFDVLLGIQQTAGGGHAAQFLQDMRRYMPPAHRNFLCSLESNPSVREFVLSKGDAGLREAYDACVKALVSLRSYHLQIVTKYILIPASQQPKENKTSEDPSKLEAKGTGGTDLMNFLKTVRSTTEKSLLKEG

| SMILES | IC50 [1] [nM] | IC50 [2] [nM] |
| --- | --- | --- |
| O=C(N[C@H]1[C@@H]2C[C@@](O)(c3cc(Cl)cc4[nH]ncc34)C[C@@H]21)c1ccc(Cl)cc1 [Example 119, 4-chloro-N-((1R,3r,5S,6r)-3-(6-chloro-1H-indazol-4-yl)-3-hydroxybicyclo[3.1.0]hexan-6-yl)benzamide] | ≤ 500 | ≤ 500 |
| CC(=O)N1C[C@@H]2CN(c3c(C4CC4)ccc4cncn34)C[C@@H]2C1(C)C (racemic) [Example 56, Racemic-1-((3aS,6aR)-5-(6-cyclopropylimidazo[1,5-a]pyridin-5-yl)-1,1-dimethylhexahydropyrrolo[3,4-c]pyrrol-2(1H)-yl)ethanone] | > 5000 | > 5000 |
| CS(=O)(=O)N[C@H]1[C@@H]2C[C@@](O)(c3cc(Cl)cc4[nH]ncc34)C[C@@H]21 [Example 63, N-((1R,3r,5S,6r)-3-(6-chloro-1H-indazol-4-yl)-3-hydroxybicyclo[3.1.0]hexan-6-yl)methanesulfonamide] | 500 to 1000 | ≤ 500 |
| O=C(N[C@H]1[C@@H]2C[C@@](O)(c3cc(Cl)cc4[nH]ncc34)C[C@@H]21)c1cccc(F)c1 [Example 143, N-((1R,3r,5S,6r)-3-(6-chloro-1H-indazol-4-yl)-3-hydroxybicyclo[3.1.0]hexan-6-yl)-3-fluorobenzamide] | ≤ 500 | ≤ 500 |
| O[C@@]1(c2cc(Cl)cc3cn[nH]c23)C[C@H]2CN(c3ccncc3)C[C@H]2C1 [Example 117, (3aR,5r,6aS)-5-(5-chloro-1H-indazol-7-yl)-2-(pyridin-4-yl)octahydrocyclopenta[c]pyrrol-5-ol] | > 5000 | > 5000 |
| CC1(C)[C@H]2CN(c3c(C(F)(F)F)ccc4cncn34)C[C@H]2CN1S(C)(=O)=O (racemic) [Example 48, Racemic-5-((3aR,6aS)-4,4-dimethyl-5-(methylsulfonyl)hexahydropyrrolo[3,4-c]pyrrol-2(1H)-yl)-6-(trifluoromethyl)imidazo[1,5-a]pyridine] | > 5000 | > 5000 |
| O[C@@]1(c2cc(Cl)cc3[nH]ncc23)C[C@H]2CN(c3ccncc3)C[C@H]2C1 [Example 116, (3aR,5r,6aS)-5-(6-chloro-1H-indazol-4-yl)-2-(pyridin-4-yl)octahydrocyclopenta[c]pyrrol-5-ol] | > 5000 | ≤ 500 |
| O=C(c1ccncc1)N1C[C@@H]2C[C@@](O)(c3cc(Cl)cc4[nH]ncc34)C[C@@H]2C1 [Example 40, ((3aR,5r,6aS)-5-(6-chloro-1H-indazol-4-yl)-5-hydroxyhexahydrocyclopenta[c]pyrrol-2(1H)-yl)(pyridin-4-yl)methanone] | > 5000 | ≤ 500 |
| CS(=O)(=O)N1C[C@@H]2C[C@@](O)(c3cc(Cl)cn4cncc34)C[C@@H]2C1 [Example 52, (3aR,5r,6aS)-5-(6-chloroimidazo[1,5-a]pyridin-8-yl)-2-(methylsulfonyl)octahydrocyclopenta[c]pyrrol-5-ol] | 1000 to 5000 | ≤ 500 |
| O=C(c1nc2cc(Cl)ccc2[nH]1)N1C[C@@H]2C[C@@](O)(c3cc(Cl)cc4[nH]ncc34)C[C@@H]2C1 [Example 134, (5-chloro-1H-benzo[d]imidazol-2-yl)((3aR,5r,6aS)-5-(6-chloro-1H-indazol-4-yl)-5-hydroxyhexahydrocyclopenta[c]pyrrol-2(1H)-yl)methanone] | 1000 to 5000 | ≤ 500 |
| O=C(N[C@H]1[C@@H]2C[C@@](O)(c3cc(Cl)cc4cn[nH]c34)C[C@@H]21)c1ccncc1 [Example 130, N-((1R,3r,5S,6r)-3-(5-chloro-1H-indazol-7-yl)-3-hydroxybicyclo[3.1.0]hexan-6-yl)isonicotinamide] | 500 to 1000 | 1000 to 5000 |
| CCNS(=O)(=O)N[C@H]1[C@@H]2C[C@@](O)(c3cc(Cl)cc4[nH]ncc34)C[C@@H]21 [Example 128, N′-ethyl-N-((1R,3r,5S,6r)-3-(6-chloro-1H-indazol-4-yl)-3-hydroxybicyclo[3.1.0]hexan-6-yl)sulfuric diamide] | 500 to 1000 | ≤ 500 |
| O=C(NC1CCCCC1)N[C@H]1[C@@H]2C[C@@](O)(c3cc(Cl)cc4[nH]ncc34)C[C@@H]21 [Example 126, 1-((1R,3r,5S,6r)-3-(6-chloro-1H-indazol-4-yl)-3-hydroxybicyclo[3.1.0]hexan-6-yl)-3-cyclohexylurea] | > 5000 | ≤ 500 |
| CC(=O)N1C[C@@H]2C[C@@](O)(c3cc(Cl)cn4cncc34)C[C@@H]2C1 [Example 6, 1-((3aR,5r,6aS)-5-(6-chloroimidazo[1,5-a]pyridin-8-yl)-5-hydroxyhexahydrocyclopenta[c]pyrrol-2(1H)-yl)ethanone] | > 5000 | 500 to 1000 |

Results, then the molecule that gave them:

| IC50 [1] [nM] | IC50 [2] [nM] | SMILES |
| --- | --- | --- |
| > 5000 | 1000 to 5000 | O=C(N[C@@H]1[C@H]2C=C(c3cc(Cl)cc4[nH]ncc34)C[C@H]21)C1CC1 (racemic) [Example 183, Racemic-N-((1S,5R,6S)-3-(6-chloro-1H-indazol-4-yl)bicyclo[3.1.0]hex-2-en-6-yl)cyclopropanecarboxamide] |
| ≤ 500 | ≤ 500 | O=C(N[C@H]1[C@@H]2C[C@@](O)(c3cc(Cl)cc4[nH]ncc34)C[C@@H]21)c1cncc(C(F)(F)F)c1 [Example 182, N-((1R,3r,5S,6r)-3-(6-chloro-1H-indazol-4-yl)-3-hydroxybicyclo[3.1.0]hexan-6-yl)-5-(trifluoromethyl)nicotinamide] |
| 1000 to 5000 | ≤ 500 | O=S(=O)(NC1CC1)N[C@H]1[C@@H]2C[C@@](O)(c3cc(Cl)cc4[nH]ncc34)C[C@@H]21 [Example 160, N′-cyclopropyl-N-((1R,3r,5S,6r)-3-(6-chloro-1H-indazol-4-yl)-3-hydroxybicyclo[3.1.0]hexan-6-yl)sulfuric diamide] |
| > 5000 | ≤ 500 | NC(=O)c1cccc(C(=O)N[C@H]2[C@@H]3C[C@@](O)(c4cc(Cl)cc5[nH]ncc45)C[C@@H]32)c1 [Example 157, N1-((1R,3r,5S,6r)-3-(6-chloro-1H-indazol-4-yl)-3-hydroxybicyclo[3.1.0]hexan-6-yl)isophthalamide] |
| ≤ 500 | ≤ 500 | O=C(N[C@H]1[C@@H]2C[C@@](O)(c3cc(Cl)cc4[nH]ncc34)C[C@@H]21)c1ccnc(OC(F)(F)F)c1 [Example 161, N-((1R,3r,5S,6r)-3-(6-chloro-1H-indazol-4-yl)-3-hydroxybicyclo[3.1.0]hexan-6-yl)-2-(trifluoromethoxy)isonicotinamide] |
| ≤ 500 | ≤ 500 | O=C(Cc1ccc(Cl)cc1)N[C@H]1[C@@H]2C[C@@](O)(c3cc(Cl)cc4[nH]ncc34)C[C@@H]21 [Example 149, N-((1R,3r,5S,6r)-3-(6-chloro-1H-indazol-4-yl)-3-hydroxybicyclo[3.1.0]hexan-6-yl)-2-(4-chlorophenyl)acetamide] |
| ≤ 500 | ≤ 500 | C#Cc1cccc(C(=O)N[C@H]2[C@@H]3C[C@@](O)(c4cc(Cl)cc5[nH]ncc45)C[C@@H]32)c1 [Example 174, N-((1R,3r,5S,6r)-3-(6-chloro-1H-indazol-4-yl)-3-hydroxybicyclo[3.1.0]hexan-6-yl)-3-ethynylbenzamide] |
